{
  "source": "patent US10131691B2",
  "about": "“Compositions and methods for specific regulation of pyruvate dehydrogenase kinase” (THE BOARD OF TRUSTEES OF THE LELAND STANFORD JUNIOR …, priority 2011, dated 2018)",
  "key": {"JNK": {"system": "JNK", "assay": "JNK phosphorylation in hearts subjected to I/R (Western blot)", "set-up": "species or system rat", "method": "(§1) An ex vivo model of acute ischemic heart damage was used, which involves a 30 min equilibration period, followed by 30 min of global ischemia, which in turn is followed by 60 min of reperfusion. The hearts were perfused with 1 μM TAT or TAT-conjugated peptide. Normoxic control hearts were subjected to 90 min perfusion in the absence of ischemia. Coronary effluent was collected to determine creatine phosphokinase (CPK) release during the first 30 min of the reperfusion period. At the end of the reperfusion period, hearts were sliced into 1-mm-thick transverse sections and incubated in triphenyltetrazolium chloride solution (TTC, 1% in phosphate buffer, pH 7.4) at 37° C. for 15 min. Infarct size was expressed as a percentage of the risk zone (equivalent to total LV muscle mass) (methods described in Brandman et al., 2007, J. Biol. Chem., 282:4113-4123; Inagaki et al., 2003, Circulation, 108:869-875).\n(§2) Rat hearts were homogenized in a buffer containing 210 mM mannitol, 70 mM sucrose, 5 mM MOPS and 1 mM EDTA followed by isolation of the mitochondria fraction (described in Churchill et al., 2008, J. Mol. Cell. Cardiol., 46:278-284) and identified by the presence of VDAC (MitoSciences, Eugene, Oreg., USA). The level of phosphorylated and unphosphorylated JNK1/2 was analyzed in the total fraction using respective specific antibodies (Cell Signaling, Danvers, Mass. and Santa Cruz Biotechnology, CA, USA).\nFirst, I/R-induced infarct size after treatment with ΨPDK or δV1-1 (Inagaki et al., 2003, Circulation, 108:869-875), was smaller than that in hearts treated with the control peptide or with ΨδRACK, the δPKC-specific activator or with δV1-5 (FIG. 6A). Second, similar data were obtained when determining the levels of released creatine phosphokinase (CPK), as a marker of myocardial infarction; CPK levels in the ΨPDK- or δV1-1-treated hearts were similar and were lower than those after treatment with control peptide, ΨδRACK or δV1-5 (FIG. 6B).\nTo begin determining the contribution of each of the amino acids on the effect of the peptide, Alanine scanning was used (Brunel et al., 2006, J. Virol., 80:1680-1687; Chen et al., J. Pep. Res., 2000, 56:147-156; Brems et al., 1992, Prot. Eng., 5:527-533) (substituting individual amino acid with an alanine). The resultant ΨPDK peptide analogs were then used in the same model of myocardial infarction, using CPK release and JNK phosphorylation as markers for cardiac injury. CPI release into the perfusates and pJNK in the hearts were determined after I/R in the presence of respective peptides and compared to the levels in hearts subjected to I/R in the presence of the control peptide. None of the peptides having a substitution had any significant biological activity (Table 1)."}, "MARCKS": {"system": "MARCKS", "assay": "MARCKS phosphorylation in hearts subjected to I/R", "set-up": "species or system rat", "settings": "vs control peptide", "method": "as §1"}, "δPKC [1]": {"biological_target": "T1, δPKC (Rattus norvegicus, UniProt P09215)", "T1 construct": "from tissue; host or cells: rat heart (ex vivo ischemia/reperfusion), mitochondrial fraction", "T1 sequence (P09215 whole entry, the tested form may be a part)": "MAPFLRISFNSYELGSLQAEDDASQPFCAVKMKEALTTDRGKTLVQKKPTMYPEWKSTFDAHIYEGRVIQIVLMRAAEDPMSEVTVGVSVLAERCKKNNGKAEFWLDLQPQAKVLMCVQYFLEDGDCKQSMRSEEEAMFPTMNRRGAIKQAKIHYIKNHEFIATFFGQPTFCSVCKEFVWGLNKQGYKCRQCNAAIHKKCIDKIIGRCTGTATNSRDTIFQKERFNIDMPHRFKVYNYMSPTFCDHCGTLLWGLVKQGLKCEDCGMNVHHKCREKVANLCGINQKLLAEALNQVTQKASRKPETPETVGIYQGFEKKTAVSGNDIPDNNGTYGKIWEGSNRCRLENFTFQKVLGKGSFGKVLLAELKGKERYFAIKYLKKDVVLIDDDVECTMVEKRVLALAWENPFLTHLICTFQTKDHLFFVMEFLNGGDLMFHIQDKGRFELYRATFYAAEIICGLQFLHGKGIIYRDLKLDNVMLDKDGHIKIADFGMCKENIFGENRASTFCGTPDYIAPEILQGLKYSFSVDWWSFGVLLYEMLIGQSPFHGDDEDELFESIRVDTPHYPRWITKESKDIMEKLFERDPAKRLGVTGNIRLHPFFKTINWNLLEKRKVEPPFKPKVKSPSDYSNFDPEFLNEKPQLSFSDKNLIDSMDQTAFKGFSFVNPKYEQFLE", "assay": "δPKC translocation into mitochondria in intact hearts (ex vivo I/R)", "method": "as §1\nas §2, with “CA, USA). […]” for “CA, USA).”\nPhosphorylation of the mitochondrial PDK by δPKC occurs only following myocardial infarction Under these conditions, δPKC translocates into the mitochondria (Churchill et al., 2005, Circ. Res., 97:78-85) where it has access to PDK. It was therefore first determined whether ΨPDK peptide affects δPKC translocation into the mitochondria. […] However, similar to the mitochondrial matrix protein, aldehyde dehydrogenase (ALDH2), the majority of δPKC was insensitive to proteolysis by PK (FIG. 4C; quantitated in FIG. 4D)."}, "[2]": {"system": "fibroblasts derived from δPKC knock-out mice", "assay": "MARCKS phosphorylation in fibroblasts from δPKC knock-out mice", "assay_type": "cell-based, mouse", "settings": "fibroblasts lacking δPKC", "description": "(§3) Fibroblasts were isolated from wild-type or δPKC knockout mice (provided by Dr. Robert Messing, Gallo Center, UCSF) as previously described (Disatnik et al., 2004, J. Cell Sci., 117:4469-4479) and maintained in 20% fetal bovine serum.\n(§4) Phosphorylation of myristoylated alanine-rich C kinase substrate (MARCKS), a ubiquitous PKC substrate, was monitored by Western blot of total cell lysates, using anti-phosphorylated MARCKS (Cell Signaling, Danvers, Mass.). Anti-MARCKS and anti-δPKC antibodies were obtained from Santa Cruz Biotechnology (Santa Cruz Biotechnology, CA, USA).\n(§5) The ΨPDK sequence is found both in PDK and in the PDK-cognate protein, δPKC. It was therefore predicted that ΨPDK mimics inhibitory intra-molecular interaction, and, similar to ΨδRACK, ΨPDK should compete with the inhibitory interaction of PDK and δPKC, and increase δPKC-mediated functions (FIG. 1A). Phosphorylation of myristoylated alanine-rich C-kinase substrate (MARCKS) was used as a marker of PKC activity (Disatnik et al., 2004, J. Cell. Sci., 117:4469-4479). […] To determine the selectivity of the peptides for δPKC, fibroblasts derived from δPKC knock-out mice were also used."}, "δPKC [3]": {"biological_target": "T2, δPKC (Mus musculus, UniProt P28867)", "T2 construct": "endogenous in cells; host or cells: primary fibroblasts from wild-type mice", "T2 sequence (P28867 whole entry)": "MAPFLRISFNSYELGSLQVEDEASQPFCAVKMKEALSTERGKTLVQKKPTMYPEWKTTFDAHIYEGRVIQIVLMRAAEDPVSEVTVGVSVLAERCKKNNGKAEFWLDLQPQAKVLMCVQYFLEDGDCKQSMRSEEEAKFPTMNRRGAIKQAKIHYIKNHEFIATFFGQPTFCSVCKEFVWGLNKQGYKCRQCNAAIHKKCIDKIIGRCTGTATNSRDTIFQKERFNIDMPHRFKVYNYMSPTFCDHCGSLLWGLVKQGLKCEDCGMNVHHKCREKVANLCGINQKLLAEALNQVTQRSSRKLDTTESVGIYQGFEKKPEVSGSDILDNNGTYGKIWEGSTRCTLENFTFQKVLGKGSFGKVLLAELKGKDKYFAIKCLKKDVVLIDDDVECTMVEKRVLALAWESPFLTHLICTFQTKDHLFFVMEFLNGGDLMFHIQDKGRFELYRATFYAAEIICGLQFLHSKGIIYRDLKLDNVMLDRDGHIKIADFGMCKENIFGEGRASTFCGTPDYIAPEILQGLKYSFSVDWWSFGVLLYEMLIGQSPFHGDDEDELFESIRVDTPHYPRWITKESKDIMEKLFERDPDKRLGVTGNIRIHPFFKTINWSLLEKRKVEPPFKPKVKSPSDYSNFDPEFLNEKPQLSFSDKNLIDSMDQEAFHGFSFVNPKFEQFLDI", "assay": "MARCKS phosphorylation in wild-type fibroblasts (Western blot)", "assay_type": "cell-based", "settings": "20% serum, peptides conjugated to TAT47-57, relative to control peptide", "description": "as §3, §4, §5"}},
  "note": "No end group written: not given here.",
  "data": [
    {"substance": "ALSTER (not fully specified (C-terminus); also: TAT47-57 conjugated via disulfide) [ΨPDK, for cells and hearts conjugated to TAT47-57 via disulfide bond]", "values": [
      {"measurement": "p-JNK/total JNK", "setting": "JNK; ex vivo I/R hearts, 1 μM peptide", "result": "0.4 ± 0.10"},
      {"measurement": "I/R-induced JNK phosphorylation (in words)", "setting": "JNK; ex vivo I/R, vs δV1-5 and ΨδRACK", "result": "reduced I/R-induced JNK phosphorylation"},
      {"measurement": "I/R-induced MARCKS phosphorylation", "setting": "MARCKS", "result": "an increase in I/R-induced MARCKS phosphorylation"},
      {"measurement": "δPKC entry into the mitochondria (proteinase K resistance)", "setting": "δPKC [1]; following I/R", "result": "increased I/R-induced δPKC entry into the mitochondria"},
      {"measurement": "δPKC association with the mitochondria", "setting": "δPKC [1]; following I/R, vs control peptide", "result": "two-fold increase"},
      {"measurement": "δPKC translocation to the mitochondria", "setting": "δPKC [1]; normoxic condition", "result": "did not induce δPKC translocation to the mitochondria"},
      {"measurement": "MARCKS phosphorylation", "setting": "[2]", "result": "did not affect MARCKS phosphorylation"},
      {"measurement": "MARCKS phosphorylation", "setting": "δPKC [3]", "result": "increased MARCKS phosphorylation"}
    ]}
  ]
}
